For three compounds, MIC results are on record in DBAASP.

Molecules are shown by their SMILES. Values after ≈ are worked out from the molar mass of the structure shown.

Some test systems named below: Candida glabrata 090902; Pseudomonas aeruginosa; Escherichia coli ECO1; Acinetobacter baumannii; Staphylococcus aureus; Escherichia coli; Escherichia coli ECO2.
Common to all, as to test: ≥ marks a high value that may be exact or a test limit, other limits are often not marked, values filed in µg/mL are converted to µM
In experiment [1] the test system is Staphylococcus aureus ATCC 25923.
For experiment [2], the system named is Enterococcus faecium 091299.
Experiment [3] deals with Escherichia coli ATCC 25922.
Experiment [4] deals with Enterococcus faecalis 981.
Experiment [5] concerns Nocardia asteroides 201118.
For experiment [6], the system named is Psychrobacter faecalis X29.
The subject of experiment [7] is Enterobacter cloacae CGMCC 1.57.
Experiment [8] concerns Klebsiella pneumoniae 08040724.
Experiment [9] relates to Staphylococcus aureus RF122.
Experiment [10] has as its system Staphylococcus aureus RN4220.
Experiment [11] deals with Salmonella enterica subsp. enterica serovar Typhimurium LT2.
Experiment [12] concerns Staphylococcus aureus SA113.
Experiment [13] concerns Cronobacter sakazakii DSM 4485.
Experiment [14] relates to Escherichia coli NCIMB 11843.
The subject of experiment [15] is Staphylococcus aureus Newman.
Experiment [16] deals with Cronobacter sakazakii DPC 6440.
For experiment [17], the system named is Cronobacter muytjensii ATCC 51329.
Experiment [18] has as its system Klebsiella pneumoniae NCIMB 13218.
In experiment [19] the test system is Cronobacter sakazakii ATCC BAA-894.
For experiment [20], the system named is Pseudomonas fluorescens NCIMB 9046.
Experiment [21] has as its system Staphylococcus aureus NCTC 8325-4.
The subject of experiment [22] is Staphylococcus aureus SAU7.
Experiment [23] concerns Acinetobacter baumannii ABA2.
Experiment [24] relates to Pseudomonas aeruginosa PAER10.
Experiment [25] has as its system Pseudomonas aeruginosa PAO1.
Experiment [26] concerns Staphylococcus aureus SAU5.
Experiment [27] relates to Staphylococcus aureus S5375.
The subject of experiment [28] is Salmonella enterica serovar Typhimurium.
The test system of experiment [29] is Pseudomonas aeruginosa PAER7.
In experiment [30] the test system is Pseudomonas aeruginosa PAER4.
Experiment [31] concerns Staphylococcus aureus SAU2.
The subject of experiment [32] is Pseudomonas aeruginosa PAER1.
The test system of experiment [33] is Porphyromonas gingivalis ATCC 33277.
For experiment [34], the system named is Acinetobacter baumannii ABA1.

In general, MIC refers to the least concentration at which growth counts as inhibited. A lower MIC goes with a more susceptible organism. For `CC[C@H](C)[C@@H]1NC(=O)[C@H](CCCCN)NC(=O)[C@@H](NC(=O)[C@@H](NC(=O)[C@@H](NC(=O)[C@H](CCCCN)NC(=O)[C@@H]2CCCN2C(=O)[C@H](CC(C)C)NC(=O)[C@H](Cc2ccccc2)NC(=O)[C@H](CC(N)=O)NC(=O)[C@H](C)NC(=O)[C@H](C)NC(=O)[C@H](CC(C)C)NC(=O)CNC(=O)[C@H](C)NC(=O)[C@H](CC(C)C)NC(=O)[C@H](CCSC)NC(=O)[C@@H]2CCCN2C(=O)[C@H](CC(C)C)NC(=O)[C@@H](N)Cc2ccccc2)[C@@H](C)CC)[C@@H](C)CC)CSSC[C@@H](C(=O)O)NC(=O)[C@H](CCCCN)NC(=O)[C@H](CCCCN)NC(=O)[C@H]([C@@H](C)O)NC1=O` [FLPMLAGLAANFLPKIICKITKKC], the MIC is 6.3 µM (≈ 16.6 µg/mL) in [1]; at least 50 µM in experiment [2]; 100 µM (≈ 263 µg/mL) in experiment [3]; 6.3 µM (≈ 16.6 µg/mL) in [4]; 3.1 µM (≈ 8.16 µg/mL) in [5]; 12.5 µM (≈ 32.9 µg/mL) in experiment [6]. Further, the MIC in experiment [7] is at least 100 µM; in [8], at least 100 µM; in the experiment with Candida glabrata 090902, 6.3 µM (≈ 16.6 µg/mL).
As for `CC(C)C[C@H](NC(=O)[C@H](CCCN=C(N)N)NC(=O)[C@H](C)NC(=O)[C@H](CC(N)=O)NC(=O)[C@H](CCC(=O)O)NC(=O)[C@H](CC(N)=O)NC(=O)[C@H](CC(C)C)NC(=O)[C@@H](N)C(C)C)C(=O)O` [VLNENARL], the MIC in [9] was at least 1250 µM; in experiment [10], at least 1250 µM; in experiment [11], at least 1250 µM; in experiment [12], at least 625 µM; in experiment [13] it was at least 1250 µM; in experiment [14] it was at least 1250 µM. Further, the MIC in experiment [15], in experiment [16], in experiment [17], in experiment [18], in experiment [19] and in experiment [20] was at least 1250 µM each time. Moreover, the MIC in [21] was at least 1250 µM.
Consider `CC[C@H](C)[C@H](NC(=O)[C@H](CCCN=C(N)N)NC(=O)[C@H](Cc1c[nH]c2ccccc12)NC(=O)[C@H](CCC(N)=O)NC(=O)[C@@H](N)C(C)C)C(=O)N[C@@H](CCCN=C(N)N)C(=O)N[C@H](C(=O)N[C@@H](C)C(=O)N[C@H](C(=O)N[C@H](C(=O)N[C@@H](CCCN=C(N)N)C(=O)N[C@@H](CCCCN)C(=O)O)[C@@H](C)CC)C(C)C)C(C)C` [VQWRIRVAVIRK], for which the minimal inhibitory concentration (MIC) turned out to be 21 µM (≈ 32 µg/mL) in experiment [22]; 7.42 µM (≈ 11.3 µg/mL) in experiment [23]; 2.62 µM (≈ 4 µg/mL) in experiment [24]; 10.5 µM (≈ 16 µg/mL) in [25]; 21 µM (≈ 32 µg/mL) in experiment [26]; 10.5 µM (≈ 16 µg/mL) in [1]. The MIC was 10.5 µM (≈ 16 µg/mL) against Pseudomonas aeruginosa; 14.8 µM (≈ 22.6 µg/mL) in experiment [27]; 5.25 µM (≈ 8 µg/mL) in experiment [28]; 3.71 µM (≈ 5.66 µg/mL) against Escherichia coli ECO1; 21 µM (≈ 32 µg/mL) in experiment [29]; 10.5 µM (≈ 16 µg/mL) in experiment [30]. For the same compound, the MIC in the experiment with Acinetobacter baumannii was 10.5 µM (≈ 16 µg/mL); in the experiment with Staphylococcus aureus, 14.8 µM (≈ 22.6 µg/mL); against Escherichia coli, 42 µM (≈ 64 µg/mL); in experiment [31] it was 21 µM (≈ 32 µg/mL); in experiment [32], 3.71 µM (≈ 5.66 µg/mL); in experiment [3] it was 10.5 µM (≈ 16 µg/mL). Also, the MIC is 3.71 µM (≈ 5.66 µg/mL) in the experiment on Escherichia coli ECO2, 5.25 µM (≈ 8 µg/mL) in experiment [33] and 5.25 µM (≈ 8 µg/mL) in [34].
